Test results as given in publication PMC8201479, “Trisubstituted Pyrrolinones as Small-Molecule Inhibitors Disrupting the Protein–RNA Interaction of LIN28 and Let-7” (ACS Medicinal Chemistry Letters, 2021).
Read-outs that look alike come from different tables or passages of the source.

Key:
LIN28–let-7 interaction [1] = target: T1, LIN28–let-7 interaction (Homo sapiens, UniProt Q9H9Z2); test: Fluorescence polarization (FP) assay, LIN28A (residues 16–187) and FAM-labeled preE-let-7f-1; format: binding; settings: for IC50: Table 1, quadruplicate, eight concentrations, extrapolated based on the observed IC50 curves, read-out: IC50, LIN28–let-7 inhibitory activity; for FP, Average (mP): raw data Table S3, four replicates
T1 construct: Purified LIN28A (residues 16–187) was incubated at a concentration of 200 nM; His-tag (cleaved yes); made in house; host or cells: Escherichia coli BL21(DE3)
T1 sequence (Q9H9Z2 16-187): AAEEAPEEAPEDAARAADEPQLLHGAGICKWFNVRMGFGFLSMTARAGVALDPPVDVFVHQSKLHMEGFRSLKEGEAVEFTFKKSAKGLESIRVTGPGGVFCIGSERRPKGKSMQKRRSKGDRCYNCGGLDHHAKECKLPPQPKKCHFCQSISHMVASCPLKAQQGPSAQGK

LIN28–let-7 interaction [2] = target: T1, LIN28–let-7 interaction; test: as above; format: binding
Experimental: Protein expression and purification.
19 vector and overexpressed in Escherichia coli BL21(DE3). The culture was incubated at 37 °C until
the absorbance at 600 nm (OD600) reached 0.5–0.7. IPTG was added to a final concentration of
300 µM, and overnight induction was performed at 18 °C. Cells were harvested by centrifugation.
The bacterial pellet was resuspended in lysis buffer (50 mM NaH2PO4, pH 7.5, 300 mM NaCl,
0.1 mM PMSF) and lysed using a Microfluidizer (Microfluidics) . A fresh portion of 0.1 mM PMSF
and Triton X-100 (1% final concentration) were added. The lysate was cleared by ultra centrifugation
at 30000 xg and 4 °C for 1 h. The protein purification was performed using immobilized nickel
300 mM NaCl and 5 % glycerol. Gradient elution was performed with a maximum of 0.5 M imidazole.
Subsequently, the affinity tag was cleaved using His6 -TEV-protease and the protease and unspecific
binders were eliminated by a second nickel affinity chromatography. After protein concentration
LIN28A containing fractions were concentrated and applied to a High Load Superdex 75 pg 16/600
column (GE Healthcare) with gel-filtration buffer (30 mM NaH2PO4, pH 7.5, 50 mM NaCl, 5%
glycerol, 2 mM β-ME). The purified protein was concentrated and stored at -80 °C until further
Fluorescence polarization. The fluorescence polarization assay was performed in black low volume
IC50 measurements were performed with three technical
minutes with compound concentrations ranging from 0.3 nM to 100 µM in FP assay buffer (20 mM
Tris, pH 7, 100 mM NaCl, 5 mM MgCl2, 2 mM glutathione (reduced), 0.1 % NP-40). Subsequently,
FAM-labeled preE-let-7f-1 (mus musculus) ([…]-
FAM, synthesized by IDT) was added to a final concentration of 2 nM. Fluorescence polarization
was detected after incubation at room temperature using a TECAN Spark plate reader. Half maximal
inhibitory concentrations (IC50) were determined using GraphPad Prism 7. […]

[3] = starting from a maximum of 60 μM

COc1ccc(C(=O)C2=C(O)C(=O)N(c3ccc(C(=O)O)cc3)C2c2ccc([N+](=O)[O-])cc2)cc1 (stereo not drawn) [C884]
IC50 (LIN28–let-7 interaction [1]; starting from 30 μM): > 100 µM

O=C(O)c1ccc(N2C(=O)C(O)=C(C(=O)c3ccc(Br)cc3)C2c2ccc(-c3nccs3)cc2)cc1 (stereo not drawn) [C899]
IC50 (LIN28–let-7 interaction [2]): > 100 µM

O=C(O)c1ccc(C2C(C(=O)c3ccccc3)=C(O)C(=O)N2c2cccc(C(=O)O)c2)cc1 (stereo not drawn) [C881]
IC50 (LIN28–let-7 interaction [1]; starting from 30 μM): > 100 µM

COc1ccc(C(=O)C2=C(O)C(=O)N(c3cccc(C(=O)O)c3)C2c2ccc(C(=O)O)cc2)cc1 (stereo not drawn) [C886]
IC50 (LIN28–let-7 interaction [1]; starting from 30 μM): > 100 µM

COc1ccc(C(=O)C2=C(O)C(=O)N(c3ccc(C(=O)O)cc3)C2c2ccc(C(=O)O)cc2)cc1 (stereo not drawn) [C887]
IC50 (LIN28–let-7 interaction [1]; starting from 30 μM): > 100 µM

COc1ccc(C(=O)C2=C(O)C(=O)N(c3cccc(C(=O)O)c3)C2c2ccc([N+](=O)[O-])cc2)cc1 (stereo not drawn) [C883]
IC50 (LIN28–let-7 interaction [1]; starting from 30 μM): > 100 µM

O=C(O)c1cccc(N2C(=O)C(O)=C(C(=O)c3ccc(Br)cc3)C2c2ccc([N+](=O)[O-])cc2)c1 (stereo not drawn) [C891]
IC50 (LIN28–let-7 interaction [1]; starting from 30 μM): > 100 µM

O=C(O)c1ccc(C2C(C(=O)c3ccccc3)=C(O)C(=O)N2c2ccc(C(=O)O)cc2)cc1 (stereo not drawn) [C882]
IC50 (LIN28–let-7 interaction [1]; starting from 30 μM): > 100 µM

O=C(C1=C(O)C(=O)N(c2ccc(C(=O)O)c(O)c2)C1c1ccc(-c2nccs2)cc1)c1ccc(Br)cc1 (stereo not drawn) [PH-30]
IC50 (LIN28–let-7 interaction [1]; [3]): > 100 µM | FP, Average (mP) (LIN28–let-7 interaction [1]; 0.041 μM compound): 110.75 mP | FP, Average (mP) (LIN28–let-7 interaction [1]; 0.123 μM compound): 116.25 mP | FP, Average (mP) (LIN28–let-7 interaction [1]; 0.368 μM compound): 115.75 mP | FP, Average (mP) (LIN28–let-7 interaction [1]; 1.103 μM compound): 116.25 mP | FP, Average (mP) (LIN28–let-7 interaction [1]; 3.125 μM compound): 107.00 mP | FP, Average (mP) (LIN28–let-7 interaction [1]; 9.375 μM compound): 111.25 mP | FP, Average (mP) (LIN28–let-7 interaction [1]; 29.688 μM compound): 107.25 mP | FP, Average (mP) (LIN28–let-7 interaction [1]; 59.375 μM compound): 98.68 mP

O=C(C1=C(O)C(=O)N(c2ccc(O)cc2)C1c1ccc(-c2nccs2)cc1)c1ccc(Br)cc1 (stereo not drawn) [PH-35]
IC50 (LIN28–let-7 interaction [1]; [3]): > 100 µM | FP, Average (mP) (LIN28–let-7 interaction [1]; 0.041 μM compound): 115.25 mP | FP, Average (mP) (LIN28–let-7 interaction [1]; 0.123 μM compound): 112.75 mP | FP, Average (mP) (LIN28–let-7 interaction [1]; 0.368 μM compound): 116.50 mP | FP, Average (mP) (LIN28–let-7 interaction [1]; 1.103 μM compound): 109.50 mP | FP, Average (mP) (LIN28–let-7 interaction [1]; 3.125 μM compound): 110.25 mP | FP, Average (mP) (LIN28–let-7 interaction [1]; 9.375 μM compound): 104.00 mP | FP, Average (mP) (LIN28–let-7 interaction [1]; 29.688 μM compound): 104.65 mP | FP, Average (mP) (LIN28–let-7 interaction [1]; 59.375 μM compound): 93.48 mP

COc1ccc(C(=O)C2=C(O)C(=O)N(c3cccc(-c4nnn[nH]4)c3)C2c2ccc(C(=O)O)cc2)cc1 (stereo not drawn) [C888]
IC50 (LIN28–let-7 interaction [1]; starting from 30 μM): > 100 µM

O=C(C1=C(O)C(=O)N(c2cccc(-c3nnn[nH]3)c2)C1c1ccc([N+](=O)[O-])cc1)c1ccc(Br)cc1 (stereo not drawn) [C892]
IC50 (LIN28–let-7 interaction [1]; starting from 30 μM): > 100 µM

O=C(O)c1ccc(C2C(C(=O)c3ccc(Br)cc3)=C(O)C(=O)N2c2cccc(C(=O)O)c2)cc1 (stereo not drawn) [C894]
IC50 (LIN28–let-7 interaction [1]; starting from 30 μM): > 100 µM

COc1ccc(C(=O)C2=C(O)C(=O)N(c3cccc(C(=O)O)c3)C2c2ccc(-c3nccs3)cc2)cc1 (stereo not drawn) [C900]
IC50 (LIN28–let-7 interaction [1]; starting from 30 μM): > 100 µM
